In patent US6955806B2, “Ionene polymers and their use as antimicrobial agents” (Genzyme Corporation, priority 2001, dated 2005):
Where two headings read alike, the source gives them in different places.

Conditions: mouse, in vivo
Procedure: In vivo toxicity of the polymer of Formula II was assayed in mice. Groups of 5 animals were dosed twice daily for 5 days by oral gavage at a dose of 10, 100, or 500 mg/kg body weight. Animals were assessed daily, and deaths were recorded. The dose at which ½ the animals died was considered the LD50.

**Q.** What does the source list for “Poly(4,4′-trimethylenebis(1-methylpiperidinium)-alt-1,8-octane) [Formula II]”?
**A.** tolerability in 5-day oral toxicity study (10 mg/kg/day): well tolerated; tolerability in 5-day oral toxicity study (100 mg/kg/day): moderate toxicity was evident
